Source: patent US9381142B2, “Olfactory adaptation and cross-adapting agents to reduce the perception of body odors” (Monell Chemical Senses Center, priority 2002, dated 2016)

Legend:
[1] = system: female stress-derived axillary odor; experiment: Cross-adaptation of female stress-derived axillary odor (odor panel, magnitude estimation of perceived intensity); format: in vivo, human; conditions: for Magnitude of Reduction of Intensity of Female Stress-Derived Odor (FSDO), Males: female stress-derived odor perceived by men; for Magnitude of Reduction of Intensity of Female Stress-Derived Odor (FSDO), Females: female stress-derived odor perceived by women
From the text: (§1) The procedure relies upon an individual constantly sniffing an adapting agent, such as a fragrance, and occasionally a test odorant. Perceived intensity of the test odorant is obtained by using psychophysical, magnitude-estimation procedures. These perceived intensities are obtained every 30 seconds over the test period, and are then compared with baseline perceived intensities obtained before the individual began sniffing the adapting agent. Throughout the testing we observe adaptation to the adapting agent. Results during trials with an inserted test odorant, such as the axillary odor used here, are believed to be reasonably predictive. If the perceived intensity of the test odorant decreases during the test, then the adapting agent cross-adapts the test odorant and becomes a cross-adapting agent. If the cross-adapting agent is itself not offensive, then the cross-adapting agent becomes a candidate for use in formulations in consumer products to ameliorate malodors, such as axillary odor or fecal/urine odors, and odors related to the female menstrual cycle.
(§2) Collection of secretions: Apocrine secretions obtained under stressed conditions provided the axillary odor that was used as the test odorant to evaluate the effectiveness of various adapting agents. Secretions were obtained from males (ages 20 to 60 years) and females (ages 20 to 40 years) in good health. […] Volunteers prepared their axillae for collection of apocrine secretions by refraining from deodorant use for 3 days and shaving their axillae the morning of the collection day.
(§3) Volunteers were rested in a supine position. The axillary regions were washed with isopropanol-soaked pads and injected intradermally with 1:10,000 adrenalin (in physiologic saline). This injection stimulated the secretion of apocrine gland secretions, which were collected in 10 μl pipettes, passed into 0.25 ml Eppendorf tubes, and stored on ice (or frozen for longer storage). The amount of secretion collected varied greatly with the individual subject (≦10 μl). The apocrine secretions from each volunteer were combined by consecutively washing each Eppendorf tube with 2×300 μl of doubly distilled water. This aqueous-apocrine fluid was transferred to a 5 ml round-bottomed flask for hydrolysis. X-N. Zeng, J. J. Leyden, J. G. Brand, A. I. Spielman, K. J. McGinley, G. Preti, An Investigation of Human Apocrine Gland Secretion for Axillary Odor Precursors, 18 J. Chem. Ecol. 1039-1055 (1992); X-N. Zeng, J. J. Leyden, A. I. Spielman and G. Preti Analysis of the characteristic human female axillary odors: Qualitative comparison to males. 22 J. Chem. Ecol. 237-257 (1996).
(§4) Production of odor: To produce quantities of stress-derived axillary odor for testing purposes, we hydrolyzed the apocrine secretion. The aqueous solution was refluxed for 20 min with 0.5 ml, 5% aqueous sodium hydroxide under a stream of nitrogen. The mixture was allowed to cool to room temperature, and then it was cooled in ice prior to being acidified with 6 N HCl to pH 2. The resulting axillary odor developed in the reaction mixture upon acidification was used as the test odorant. The axillary odors generated by this in vitro technique are analogous to the malodors produced by stressed individuals.
A separate panel of 24 subjects (12 males and 12 females) tested samples of female stress-derived axillary odor with potential cross-adapting agents, some of which were not included in Example 1 above. Some of the subjects assessing the effectiveness of cross-adaptation of male stress-derived axillary odor were also used in the experiment with female secretions. However, these two experiments were treated as independent events. All panel members were screened for adequate use of magnitude estimation and further trained in its use during two to three training sessions. […]

[2] = system: male stress-derived axillary odor; experiment: Cross-adaptation of male stress-derived axillary odor (odor panel, magnitude estimation of perceived intensity); format: in vivo, human; conditions: for Magnitude of Reduction of Intensity of Male Stress-Derived Odor (MSDO), Males: male stress-derived odor perceived by men; for Magnitude of Reduction of Intensity of Male Stress-Derived Odor (MSDO), Females: male stress-derived odor perceived by women
From the text: as §1, §2, §3, §4
Sixteen (16) individuals (8 of each gender) served on an odor panel. Subjects ranged in age from 22 to 55 years (mean 32.7±10.6 s.d.), were not pregnant (by verbal report), and were all non-smokers. All panel members were screened for adequate use of magnitude estimation (some people have difficulties maintaining a ratio scale, i.e., when an odorant is half as strong as the previous, these people fail to provide a number that is half the previous estimate) and further trained in its use during 2-3 training sessions. All 16 subjects were tested with samples of male malodor compared to each of the potential cross-adapting agents. […]
Further: key: best: Best = Superior Cross-Adaptation; good: Good = Adequate Cross-Adaptation; poor: Poor = Ineffective Cross-Adaptation.

C=CCCC(=O)C1=CCCC(C)(C)C1 [Dynascone 10, 1-(5,5-dimethyl-1-cyclohexen-1-yl)4-penten-1-one]
Magnitude of Reduction of Intensity of Female Stress-Derived Odor (FSDO), Males [1]: good | Magnitude of Reduction of Intensity of Female Stress-Derived Odor (FSDO), Females [1]: good | Magnitude of Reduction of Intensity of Male Stress-Derived Odor (MSDO), Males [2]: best | Magnitude of Reduction of Intensity of Male Stress-Derived Odor (MSDO), Females [2]: poor

CCCCCCCC1CCC(=O)O1 (stereo not shown) [C14 Aldehyde, gamma-undecalactone]
Magnitude of Reduction of Intensity of Female Stress-Derived Odor (FSDO), Males [1]: good | Magnitude of Reduction of Intensity of Female Stress-Derived Odor (FSDO), Females [1]: good | Magnitude of Reduction of Intensity of Male Stress-Derived Odor (MSDO), Males [2]: good | Magnitude of Reduction of Intensity of Male Stress-Derived Odor (MSDO), Females [2]: poor

CCC(=CCC1CC=C(C)C1(C)C)CO (stereo not shown) [Sandranol ®, 2-ethyl-4-(2,2,3-trimethyl-3-cyclopenten-1-yl)-2-buten-1-ol]
Magnitude of Reduction of Intensity of Female Stress-Derived Odor (FSDO), Males [1]: good | Magnitude of Reduction of Intensity of Female Stress-Derived Odor (FSDO), Females [1]: good | Magnitude of Reduction of Intensity of Male Stress-Derived Odor (MSDO), Males [2]: good | Magnitude of Reduction of Intensity of Male Stress-Derived Odor (MSDO), Females [2]: poor

CC(C)=CC1CC(C)CCO1 (stereo not shown) [Rose Oxide hc, 4-methyl-2-(2-methyl-1-propenyl)tetrahydro-2H-pyran]
Magnitude of Reduction of Intensity of Female Stress-Derived Odor (FSDO), Males [1]: good | Magnitude of Reduction of Intensity of Female Stress-Derived Odor (FSDO), Females [1]: good | Magnitude of Reduction of Intensity of Male Stress-Derived Odor (MSDO), Males [2]: poor | Magnitude of Reduction of Intensity of Male Stress-Derived Odor (MSDO), Females [2]: good

CC(C)=CCCC(C)CCCC(C)C=O (stereo not shown) [FARENAL ®, 2,6,10-trimethyl-9-undecenal]
Magnitude of Reduction of Intensity of Female Stress-Derived Odor (FSDO), Males [1]: good | Magnitude of Reduction of Intensity of Female Stress-Derived Odor (FSDO), Females [1]: poor | Magnitude of Reduction of Intensity of Male Stress-Derived Odor (MSDO), Males [2]: poor | Magnitude of Reduction of Intensity of Male Stress-Derived Odor (MSDO), Females [2]: poor

CC1CC(C)(c2ccccc2)OC(C)O1 (stereo not shown) [Floropal, 2,4,6-trimethyl-4-phenyl-1,3-dioxane]
Magnitude of Reduction of Intensity of Female Stress-Derived Odor (FSDO), Males [1]: best | Magnitude of Reduction of Intensity of Female Stress-Derived Odor (FSDO), Females [1]: best | Magnitude of Reduction of Intensity of Male Stress-Derived Odor (MSDO), Males [2]: good | Magnitude of Reduction of Intensity of Male Stress-Derived Odor (MSDO), Females [2]: poor

CC(=O)OC1CCCCC1C(C)(C)C (stereo not shown) [Agrumex, 2-tert-butyl cyclohexyl acetate]
Magnitude of Reduction of Intensity of Female Stress-Derived Odor (FSDO), Males [1]: poor | Magnitude of Reduction of Intensity of Female Stress-Derived Odor (FSDO), Females [1]: best | Magnitude of Reduction of Intensity of Male Stress-Derived Odor (MSDO), Males [2]: good | Magnitude of Reduction of Intensity of Male Stress-Derived Odor (MSDO), Females [2]: poor

C=CCc1ccc(O)c(OC)c1 [Eugenol, 2-methoxy-1-hydroxy-4-allylbenzene]
Magnitude of Reduction of Intensity of Female Stress-Derived Odor (FSDO), Males [1]: good | Magnitude of Reduction of Intensity of Female Stress-Derived Odor (FSDO), Females [1]: good | Magnitude of Reduction of Intensity of Male Stress-Derived Odor (MSDO), Males [2]: best | Magnitude of Reduction of Intensity of Male Stress-Derived Odor (MSDO), Females [2]: poor

l-carvone
Magnitude of Reduction of Intensity of Female Stress-Derived Odor (FSDO), Males [1]: good | Magnitude of Reduction of Intensity of Female Stress-Derived Odor (FSDO), Females [1]: best | Magnitude of Reduction of Intensity of Male Stress-Derived Odor (MSDO), Males [2]: best | Magnitude of Reduction of Intensity of Male Stress-Derived Odor (MSDO), Females [2]: best

CCCCCCOC(=O)c1ccccc1O [Hexyl Salicylate, hexyl-2-hydroxybenzoate]
Magnitude of Reduction of Intensity of Female Stress-Derived Odor (FSDO), Males [1]: poor | Magnitude of Reduction of Intensity of Female Stress-Derived Odor (FSDO), Females [1]: good | Magnitude of Reduction of Intensity of Male Stress-Derived Odor (MSDO), Males [2]: poor | Magnitude of Reduction of Intensity of Male Stress-Derived Odor (MSDO), Females [2]: poor

OCCc1ccccc1 [Phenylethyl Alcohol, phenylethyl alcohol]
Magnitude of Reduction of Intensity of Female Stress-Derived Odor (FSDO), Males [1]: good | Magnitude of Reduction of Intensity of Female Stress-Derived Odor (FSDO), Females [1]: poor | Magnitude of Reduction of Intensity of Male Stress-Derived Odor (MSDO), Males [2]: good | Magnitude of Reduction of Intensity of Male Stress-Derived Odor (MSDO), Females [2]: good

CC/C=C\CCO [Cis-3-Hexenol, cis-3-hexenol-1-ol]
Magnitude of Reduction of Intensity of Female Stress-Derived Odor (FSDO), Males [1]: best | Magnitude of Reduction of Intensity of Female Stress-Derived Odor (FSDO), Females [1]: good | Magnitude of Reduction of Intensity of Male Stress-Derived Odor (MSDO), Males [2]: good | Magnitude of Reduction of Intensity of Male Stress-Derived Odor (MSDO), Females [2]: good

CC(=O)O[C@@H]1C[C@H](C)CC[C@H]1C(C)C [Menthyl Acetate rf, 4-menthyl-3-yl acetate]
Magnitude of Reduction of Intensity of Female Stress-Derived Odor (FSDO), Males [1]: good | Magnitude of Reduction of Intensity of Female Stress-Derived Odor (FSDO), Females [1]: good | Magnitude of Reduction of Intensity of Male Stress-Derived Odor (MSDO), Males [2]: best | Magnitude of Reduction of Intensity of Male Stress-Derived Odor (MSDO), Females [2]: poor

O=C1CCCCCCCCCCCCCCO1 [cpd Supra, oxacyclohexadecan-2-one]
Magnitude of Reduction of Intensity of Female Stress-Derived Odor (FSDO), Males [1]: good | Magnitude of Reduction of Intensity of Female Stress-Derived Odor (FSDO), Females [1]: good | Magnitude of Reduction of Intensity of Male Stress-Derived Odor (MSDO), Males [2]: poor | Magnitude of Reduction of Intensity of Male Stress-Derived Odor (MSDO), Females [2]: poor

C=CC(C)CCCC(C)(C)O (stereo not shown) [Dihydromyrcenol, 2,6-dimethyl-7-octen-2-ol]
Magnitude of Reduction of Intensity of Female Stress-Derived Odor (FSDO), Males [1]: best | Magnitude of Reduction of Intensity of Female Stress-Derived Odor (FSDO), Females [1]: good | Magnitude of Reduction of Intensity of Male Stress-Derived Odor (MSDO), Males [2]: best | Magnitude of Reduction of Intensity of Male Stress-Derived Odor (MSDO), Females [2]: good

CC(C)=CCC(C)(C)C(=O)C(C)C [CLARITONE ®, 2,4,4,7-tetramethyl-oct-6-en-3-one]
Magnitude of Reduction of Intensity of Female Stress-Derived Odor (FSDO), Males [1]: best | Magnitude of Reduction of Intensity of Female Stress-Derived Odor (FSDO), Females [1]: good | Magnitude of Reduction of Intensity of Male Stress-Derived Odor (MSDO), Males [2]: best | Magnitude of Reduction of Intensity of Male Stress-Derived Odor (MSDO), Females [2]: best

CC(=O)OC1CCC(C(C)(C)C)CC1 (stereo not shown) [Oryclone Special, 4-tertbutylcyclohexyl acetate]
Magnitude of Reduction of Intensity of Female Stress-Derived Odor (FSDO), Males [1]: best | Magnitude of Reduction of Intensity of Female Stress-Derived Odor (FSDO), Females [1]: poor | Magnitude of Reduction of Intensity of Male Stress-Derived Odor (MSDO), Males [2]: good | Magnitude of Reduction of Intensity of Male Stress-Derived Odor (MSDO), Females [2]: poor

CC(=O)C1(C)CC2=C(CCCC2(C)C)CC1C (stereo not shown) [ISO E SUPER ®, octahydro-2,3,8,8-tetramethyl-2-acetonaphthone]
Magnitude of Reduction of Intensity of Female Stress-Derived Odor (FSDO), Males [1]: poor | Magnitude of Reduction of Intensity of Female Stress-Derived Odor (FSDO), Females [1]: poor | Magnitude of Reduction of Intensity of Male Stress-Derived Odor (MSDO), Males [2]: poor | Magnitude of Reduction of Intensity of Male Stress-Derived Odor (MSDO), Females [2]: poor

oxacyclohexadecen-2-one [GLOBALIDE ®]
Magnitude of Reduction of Intensity of Female Stress-Derived Odor (FSDO), Males [1]: poor | Magnitude of Reduction of Intensity of Female Stress-Derived Odor (FSDO), Females [1]: good | Magnitude of Reduction of Intensity of Male Stress-Derived Odor (MSDO), Males [2]: good | Magnitude of Reduction of Intensity of Male Stress-Derived Odor (MSDO), Females [2]: poor

CCCCCC(C)=CC(=O)OCC (single isomer, unassigned) [E-, Z-isomers (3:1) of 3-methyl-2-octenoic acid ethyl esters, 3-methyl-2-octenoic acid ethyl esters]
Magnitude of Reduction of Intensity of Female Stress-Derived Odor (FSDO), Males [1]: best | Magnitude of Reduction of Intensity of Female Stress-Derived Odor (FSDO), Females [1]: best | Magnitude of Reduction of Intensity of Male Stress-Derived Odor (MSDO), Males [2]: best | Magnitude of Reduction of Intensity of Male Stress-Derived Odor (MSDO), Females [2]: best

CCOC(=O)C=C(C)CC (single isomer, unassigned) [Z-isomer of 3-methyl-2-pentenoic acid ethyl ester, 3-methyl-2-pentenoic acid ethyl ester]
Magnitude of Reduction of Intensity of Female Stress-Derived Odor (FSDO), Males [1]: poor | Magnitude of Reduction of Intensity of Female Stress-Derived Odor (FSDO), Females [1]: poor | Magnitude of Reduction of Intensity of Male Stress-Derived Odor (MSDO), Males [2]: best | Magnitude of Reduction of Intensity of Male Stress-Derived Odor (MSDO), Males ([2]; listed as Z-isomer 3-methyl-2-pentenoic acid ethyl ester): best | Magnitude of Reduction of Intensity of Male Stress-Derived Odor (MSDO), Females [2]: poor
